# Patent US11565005B2, “Dota-hapten compositions for anti-dota/anti-tumor antigen bispecific antibody pretargeted radioimmunotherapy” (MEMORIAL SLOAN KETTERING CANCER CENTER, priority 2017, dated 2023)
# Marks after values point to notes of the source that are not given here.
# Tested on: GPA33-expressing SW1222 xenografts
# Test: Anti-GPA33-DOTA-PRIT + [^225Ac]Proteus-DOTA biodistribution
# Conditions: for Blood uptake / SW1222 tumor uptake: pretargeted with huA33-C825 + clearing agent
# Protocol: Biodistribution Experiments. A treatment cycle of anti-GPA33 DOTA-PRIT consisted of three separate intravenous injections via the tail vein: 0.25 mg of huA33-C825 antibody (described in WO2016/130539) at t=−28 h, then […] of clearing agent (500 kD-dextran-DOTA-Bn(Y)) at t=−4 h, and [^225Ac]Proteus-DOTA at t=0. For ex vivo biodistribution analysis following the radiohaptens or anti-HER2-C825/[^225Ac]Proteus-DOTA, mice were euthanized by CO2(g) asphyxiation, and the tumors and selected organs were harvested, rinsed with water, air-dried, weighed, and radioassayed by gamma scintillation counting (Perkin Elmer Wallac Wizard 3″, Perkin Elmer, Waltham, Mass.). Count rates were background- and decay-corrected, converted to activities using a system calibration factor specific for the isotope, normalized to the administered activity, and expressed as average percent injected dose per gram (% ID/g)±1 standard deviation. Differences in radioactivity concentration in tumor and various tissues were analyzed by Student's unpaired t test when appropriate.
# Biodistribution Studies Following In vivo Targeting with Anti-GPA33-DOTA-PRIT+[^225Ac]Proteus-DOTA. [^225Ac]Proteus-DOTA was prepared to a final specific activity of 0.20 Ci/g or 274 Ci/mol and injected into groups of animals within 24-48 hours of preparation. Animals that had received injections of huA33-C825 and clearing agent were injected with […] of [^225Ac]Proteus-DOTA that was prepared approximately 24 hours prior. The following day, animals were sacrificed for ex vivo biodistribution assessment at 24 hours post injection of [^225Ac]Proteus-DOTA in tumors and select normal tissues. A control group of non-tumor bearing animals were injected with […] of [^225Ac]Proteus-DOTA that was prepared approximately 48 hours prior, and were sacrificed 1 hour post injection of [^225Ac]Proteus-DOTA for ex vivo biodistribution assessment in normal tissues. Carcass radioactivity was not collected during this study.
# A control group of healthy nude mice were injected with [^225Ac]Proteus-DOTA only (198 pmol, 1.85 kBq [50 nCi]) to evaluate normal tissue uptake of the [^225Ac]Proteus-DOTA preparation.
# These mice were sacrificed 24 h p.i. of [^225Ac]Proteus-DOTA for biodistribution assay. All animals were sacrificed at 24 h p.i. for biodistribution.
# [1] = 24 h p.i., n = 3, listed as [^225Ac] Proteus-DOTA
structure (smiles),measurement,setting,value
O=C([O-])CN1CCN(CC(=O)[O-])CCN(CC(=O)NCCOCCOCCOCCOCCNC(=S)Nc2ccc(CC3CN(CC(=O)[O-])CCN(CC(=O)[O-])CCN(CC(=O)[O-])CCN3CC(=O)[O-])cc2)CCN(CC(=O)[O-])CC1.[225Ac+3].[Lu+3] (stereo not drawn) [[^225Ac]Proteus-DOTA],Blood uptake,"24 h p.i., n = 3",0.94±0.26 % ID/g
same,SW1222 tumor uptake,"24 h p.i., n = 3",16.71±2.95 % ID/g
same,Blood uptake,[1],0.94 ± 0.26^a % ID/g
same,SW1222 tumor uptake,[1],16.71 ± 2.95 % ID/g
same,Bone uptake,"pretargeted, 24 h p.i.",undetectable
same,"Tumor-to-tissue ratio, Blood","pretargeted, 24 h p.i.",17.9 ± 4.0
same,"Tumor-to-tissue ratio, Heart","pretargeted, 24 h p.i.",60.4 ± 35.8
same,"Tumor-to-tissue ratio, Kidneys","pretargeted, 24 h p.i.",15.5 ± 4.8
same,"Tumor-to-tissue ratio, Large Intestine","pretargeted, 24 h p.i.",147.5 ± 90.9
same,"Tumor-to-tissue ratio, Liver","pretargeted, 24 h p.i.",11.9 ± 4.2
same,"Tumor-to-tissue ratio, Lungs","pretargeted, 24 h p.i.",24.0 ± 13.5
same,"Tumor-to-tissue ratio, Muscle","pretargeted, 24 h p.i.",128.6 ± 129.2
same,"Tumor-to-tissue ratio, Small Intestine","pretargeted, 24 h p.i.",102.3 ± 67.1
same,"Tumor-to-tissue ratio, Spleen","pretargeted, 24 h p.i.",31.1 ± 31.3
same,"Tumor-to-tissue ratio, Stomach","pretargeted, 24 h p.i.",238.8 ± 150.7
same,blood uptake (percent injected activity per gram of tissue),"pretargeted, 24 h p.i.",0.94±0.26 % IA/g
same,kidney uptake (percent injected activity per gram of tissue),"pretargeted, 24 h p.i.",1.08±0.55 % IA/g
same,liver uptake (percent injected activity per gram of tissue),"pretargeted, 24 h p.i.",1.40±0.47 % IA/g
same,Bone uptake,"pretargeted, 24 h p.i., n = 3",0.00 ± 0.00 % ID/g
same,Heart uptake,"pretargeted, 24 h p.i., n = 3",0.28 ± 0.28 % ID/g
same,Kidneys uptake,"pretargeted, 24 h p.i., n = 3",1.08±0.55 % ID/g
same,Large Intestine uptake,"pretargeted, 24 h p.i., n = 3",0.11 ± 0.12 % ID/g
same,Liver uptake,"pretargeted, 24 h p.i., n = 3",1.40 ± 0.82 % ID/g
same,Lungs uptake,"pretargeted, 24 h p.i., n = 3",0.70 ± 0.67 % ID/g
same,Muscle uptake,"pretargeted, 24 h p.i., n = 3",0.13 ± 0.23 % ID/g
same,Small Intestine uptake,"pretargeted, 24 h p.i., n = 3",0.16 ± 0.18 % ID/g
same,Spleen uptake,"pretargeted, 24 h p.i., n = 3",0.54 ± 0.93 % ID/g
same,Stomach uptake,"pretargeted, 24 h p.i., n = 3",0.07 ± 0.08 % ID/g
same,Kidneys uptake,"pretargeted, 24 h p.i., n = 3, listed as [^225Ac] Proteus-DOTA",1.08 ± 0.55 % ID/g
same,tumor uptake (percent injected activity per gram of tissue),"pretargeted, SW1222, 24 h p.i.",16.71±2.95 % IA/g
